From article PMC9421655, “Novel Antagonist of the Type 2 Lysophosphatidic Acid Receptor (LPA2), UCM-14216, Ameliorates Spinal Cord Injury in Mice” (Journal of Medicinal Chemistry, 2022)

Key:
LPA1 = LPA1 (Homo sapiens, UniProt Q92633); assay: cell-based; details: maximum blockade of activation induced by 10 μM LPA (18:1) at 10 μM compound; N.E. = no effect at 10 μM
Experimental: (§1) Cells stably expressing the corresponding LPA1–3 receptor were grown as described previously.[18] Changes in intracellular calcium levels were measured by using the fluorescent calcium sensitive dye Fluo-4 NW (Invitrogen). RH7777 cells or B103 cells were plated on poly-D-lysine or collagen coated, respectively, black-wall clear-bottom 96-well plates (Corning) at a density of 50 000 cells/well and cultured overnight. The culture medium was then replaced with 100 μL of Fluo-4 NW dye loading solution containing 2.5 μM of probenecid and incubated for 30 min at 37 °C followed by an additional 30 min at rt. […] Fluorescence changes were registered in a FluoStar Optima instrument (BMG Labtech) at 525 nm using an excitation wavelength of 494 nm. […] The data presented are from two to four independent experiments carried out in triplicate or quadruplicate. Dose–response curves were generated and IC50 values calculated by nonlinear regression analysis using Prism software version 5 (GraphPad Software Inc., San Diego, CA, USA).

LPA2 = biological target: T1, LPA2 (Homo sapiens, UniProt Q9HBW0); assay: Ca2+ mobilization assay, antagonist activity at LPA2; type: cell-based; set-up: Emax: dose or concentration left out as unconfirmed; details: for IC50: antagonism of 10 μM LPA, mean ± s.e.m.
T1 construct: expressed in transfected cells
Experimental: as §1
Figure S2. Dose response curves for compounds 13, 44, 53, 54, and 55. B103 cells stably expressing LPA2 receptor were incubated with different concentrations of the compound under study and […]
Curves were generated with PRISM software version 5 (GraphPad Software Inc, San Diego, CA, USA) using nonlinear regression analysis. Each data point corresponds to the mean±SEM of two to four independent experiments carried out in triplicate or quadruplicate.

LPA3 = biological target: T2, LPA3 (Homo sapiens, UniProt Q9UBY5); assay: cell-based; details: for Emax (%) LPA3: maximum blockade of activation induced by 10 μM LPA (18:1) at 10 μM compound, N.E. = no effect at 10 μM
T2 sequence (Q9UBY5 1-353): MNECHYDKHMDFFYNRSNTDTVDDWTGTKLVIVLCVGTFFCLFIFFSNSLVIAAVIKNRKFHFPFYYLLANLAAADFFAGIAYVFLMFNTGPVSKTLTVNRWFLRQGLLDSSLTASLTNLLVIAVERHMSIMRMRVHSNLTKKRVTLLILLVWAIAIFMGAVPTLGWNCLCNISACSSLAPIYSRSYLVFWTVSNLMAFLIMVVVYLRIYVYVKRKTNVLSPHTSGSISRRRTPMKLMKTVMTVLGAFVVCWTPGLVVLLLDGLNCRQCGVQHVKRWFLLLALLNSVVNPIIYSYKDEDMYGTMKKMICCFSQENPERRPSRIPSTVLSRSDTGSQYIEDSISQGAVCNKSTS
Experimental: as §1

Sequence of LPA1 (Q92633 whole entry, species assumed): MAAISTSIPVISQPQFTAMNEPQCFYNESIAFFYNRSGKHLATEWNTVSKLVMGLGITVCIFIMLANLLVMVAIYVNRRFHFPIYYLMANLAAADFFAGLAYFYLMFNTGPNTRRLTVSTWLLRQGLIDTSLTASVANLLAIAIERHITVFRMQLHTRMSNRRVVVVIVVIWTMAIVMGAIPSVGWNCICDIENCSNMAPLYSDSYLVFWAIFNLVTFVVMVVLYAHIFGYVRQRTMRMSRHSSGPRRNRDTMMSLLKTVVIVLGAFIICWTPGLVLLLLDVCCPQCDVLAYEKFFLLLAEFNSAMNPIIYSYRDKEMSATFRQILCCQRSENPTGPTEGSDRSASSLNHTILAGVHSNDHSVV
T1 sequence (Q9HBW0 whole entry, species assumed): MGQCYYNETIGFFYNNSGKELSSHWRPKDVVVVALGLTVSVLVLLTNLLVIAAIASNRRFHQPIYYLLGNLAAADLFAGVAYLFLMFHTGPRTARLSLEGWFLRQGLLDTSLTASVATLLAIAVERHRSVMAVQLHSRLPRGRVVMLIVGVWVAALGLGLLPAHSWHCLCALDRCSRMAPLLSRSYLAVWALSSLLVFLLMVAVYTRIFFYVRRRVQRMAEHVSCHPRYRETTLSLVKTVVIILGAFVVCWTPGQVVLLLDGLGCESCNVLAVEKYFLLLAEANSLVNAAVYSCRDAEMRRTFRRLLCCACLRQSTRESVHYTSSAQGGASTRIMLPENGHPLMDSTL

| Compound | Emax (%) LPA1 (LPA1) | Emax at 10 µM (LPA2) [%] | IC50 (LPA2) [µM] | Emax (%) LPA3 (LPA3) | melting point | Emax (LPA2) [%] | Emax (LPA3; read-out: Emax (%) LPA3) [%] | Emax (%) LPA2 (LPA2; maximum blockade of activation induced by 10 μM LPA (18:1) at 10 μM compound) [%] |
| --- | --- | --- | --- | --- | --- | --- | --- | --- |
| COC(=O)COc1ccc(-c2n[nH]c(C)c2Oc2ccc(Cl)cc2Cl)c(O)c1 [Compound 44, Methyl {4-[4-(2,4-dichlorophenoxy)-5-methyl-1H-pyrazol-3-yl]-3-hydroxyphenoxy} Acetate] | N.E. | 74 ± 7 | 11.6 | N.E. | > 210 °C (dec.) |  |  |  |
| O=C(O)COc1ccc(-c2n[nH]cc2Oc2ccc(Cl)cc2Cl)c(O)c1 [Compound 48, {4-[4-(2,4-Dichlorophenoxy)-1H-pyrazol-3-yl]-3-hydroxyphenoxy}acetic Acid] | N.E. | 35 ± 8 |  | N.E. |  |  |  |  |
| Cc1[nH]nc(-c2ccc(OCCCCC(=O)O)cc2O)c1Oc1ccc(Cl)cc1Cl [Compound 38, 5-{4-[4-(2,4-Dichlorophenoxy)-5-methyl-1H-pyrazol-3-yl]-3-hydroxyphenoxy}pentanoic Acid] | N.E. | 21 ± 8 |  | N.E. |  |  |  |  |
| COc1ccc(-c2n[nH]c(C)c2Oc2ccc(Cl)cc2Cl)c(O)c1 [Compound 43, 2-[4-(2,4-Dichlorophenoxy)-5-methyl-1H-pyrazol-3-yl]-5-methoxyphenol] | N.E. | 9 ± 5 |  | N.E. | 220 to 222 °C |  |  |  |
| Cc1[nH]nc(-c2ccc(OCc3nnn[nH]3)cc2O)c1Oc1ccc(F)cc1F [Compound 55] | N.E. |  |  | N.E. | > 210 °C (dec.) | 77 ± 5 |  |  |
| Cc1[nH]nc(-c2ccc(OCC(=O)O)cc2O)c1Oc1ccccc1 [Compound 3, [3-Hydroxy-4-(5-methyl-4-phenoxy-1H-pyrazol-3-yl)phenoxy]acetic Acid] | N.E. | 20 ± 7 |  | N.E. | > 180 °C (dec.) |  |  |  |
| Cc1[nH]nc(-c2ccc(OCCCC(=O)O)cc2O)c1Oc1ccc(Cl)cc1Cl [Compound 37, 4-{4-[4-(2,4-Dichlorophenoxy)-5-methyl-1H-pyrazol-3-yl]-3-hydroxyphenoxy}butanoic Acid] | N.E. | 43 ± 12 |  | N.E. |  |  |  |  |
| Cc1[nH]nc(-c2ccc(OCC(=O)O)cc2O)c1Oc1ccc(Cl)cc1 [Compound 11, {4-[4-(4-Chlorophenoxy)-5-methyl-1H-pyrazol-3-yl]-3-hydroxyphenoxy}acetic Acid] | N.E. | 60 ± 9 |  | N.E. | 121 to 123 °C |  |  |  |
| Cc1[nH]nc(-c2ccc(OCCC(=O)O)cc2O)c1Oc1ccc(Cl)cc1Cl [Compound 36, 3-{4-[4-(2,4-Dichlorophenoxy)-5-methyl-1H-pyrazol-3-yl]-3-hydroxyphenoxy}propanoic Acid] | N.E. | 67 ± 7 |  | N.E. |  |  |  |  |
| Cc1c(Oc2ccc(Cl)cc2Cl)c(-c2ccc(OCC(=O)O)cc2O)nn1C [Compound 47, {4-[4-(2,4-Dichlorophenoxy)-1,5-dimethyl-1H-pyrazol-3-yl]-3-hydroxyphenoxy}acetic Acid] | N.E. | 73 ± 10 |  |  |  |  | 47 ± 7 |  |
| Cc1[nH]nc(-c2ccc(O)cc2O)c1Oc1ccc(Cl)cc1Cl [Compound 42, 4-[4-(2,4-Dichlorophenoxy)-5-methyl-1H-pyrazol-3-yl]benzene-1,3-diol] | N.E. | 16 ± 7 |  | N.E. | 206 to 208 °C |  |  |  |
| Cc1[nH]nc(-c2ccc(OCC(=O)O)cc2O)c1Oc1ccc(F)cc1F [Compound 53, {4-[4-(2,4-Difluorophenoxy)-5-methyl-1H-pyrazol-3-yl]-3-hydroxyphenoxy}acetic Acid] | N.E. |  | 5.1 | N.E. | > 210 °C (dec.) | 65 ± 11 |  |  |
| Cc1[nH]nc(-c2ccc(OCC(N)=O)cc2O)c1Oc1ccc(Cl)cc1Cl [Compound 45, 2-{4-[4-(2,4-Dichlorophenoxy)-5-methyl-1H-pyrazol-3-yl]-3-hydroxyphenoxy}acetamide] | N.E. | 44 ± 7 |  | N.E. |  |  |  |  |
| Cc1[nH]nc(-c2ccc(OCC(=O)O)cc2O)c1Oc1cccc(Cl)c1 [Compound 10, {4-[4-(3-Chlorophenoxy)-5-methyl-1H-pyrazol-3-yl]-3-hydroxyphenoxy}acetic Acid] | N.E. | 45 ± 8 |  | N.E. | > 240 °C (dec.) |  |  |  |
| Cc1[nH]nc(-c2ccc(OCC(=O)O)cc2)c1Oc1ccc(Cl)cc1Cl [Compound 30, 4-(2,4-Dichlorophenoxy)-3-(4-carboxymethoxyphenyl)-5-methyl-1H-pyrazole] |  | 11 |  |  | 158 to 160 °C |  |  |  |
| O=C(O)COc1ccc(-c2cc[nH]n2)c(O)c1 [Compound 2, [3-Hydroxy-4-(1H-pyrazol-3-yl)phenoxy]acetic Acid] |  | 7 ± 3 |  |  | 92 to 94 °C |  |  |  |
| {4-[4-(2,4-Dichlorophenoxy)-3-methyl-1,2-oxazol-3-yl]-3-hydroxyphenoxy}acetic Acid [Compound 49] | N.E. |  |  | 71 ± 4% |  |  |  | 58 ± 3 |
| Cc1[nH]nc(-c2ccc(OCC(=O)O)cc2O)c1Oc1ccc(Cl)c(Cl)c1 [Compound 12, {4-[4-(3,4-Dichlorophenoxy)-5-methyl-1H-pyrazol-3-yl]-3-hydroxyphenoxy}acetic Acid] | N.E. | 58 ± 3 |  | N.E. | > 240 °C (dec.) |  |  |  |
